Test results as given in US6562602B2, “Fermentation and purification of mycolactones” (priority 2000, dated 2003).

Assay: stability of individual enriched mycolactone isomers in presence and absence of laboratory light, followed by HPLC
Type: physicochemical
Conditions: ambient light versus no light; data not shown
Experimental: To monitor stability of the individual enriched isomers, HPLC data was collected on samples stored in the presence and absence of laboratory light. Measurements were made on samples stored in methanol at 23° C. Initial HPLC sampling was carried out on individual isomers shielded to minimize exposure to laboratory light. These same samples were allowed to remain in the autosampler, shielded from light, for 72 hours before additional HPLC data was collected. Following this, the samples were stored on a lab bench exposed to laboratory light for 52 hours, at which time the final HPLC data time point was collected. Under these conditions, samples that were shielded from light remained stable, showing no change in their respective HPLC chromatograms.

Compound | equilibration between double bond isomers
mycolactone A | occur only when the sample was exposed to ambient light
CC(=C\C=C\C(C)=C\C(O)C(O)CC(C)O)/C=C(C)/C=C/C(=O)OC1CCCC(=O)OC(C(C)C/C(C)=C/C(C)C(O)CC(C)O)C/C=C(\C)CC1C (centres unmarked) [mycolactone B] | occur only when the sample was exposed to ambient light
